# Assay results from patent US20130217592A1, “ARRAYS AND METHODS COMPRISING M. SMITHII GENE PRODUCTS” (THE WASHINGTON UNIVERSITY, priority 2007, published 2013).
# Columns and labels:
# [1] = tested on: M. smithii strains DSMZ 861 (PS), 2374 (F1), 2375 (ALI) and 11975 (B181); assay: Statin susceptibility of M. smithii strains in the PHAT system, 96-well plates, growth by optical density at 600 nm (all four strains); format: cell-based, Methanobrevibacter smithii; conditions: preliminary results
# Method: A system for culturing M. smithii in 96-well plate format was designed and constructed in the following manner (See FIG. 15). Three stainless steel paint canisters (Binks, 83S-210, 2 gallon size) were modified for incubation of plates at 37° C. in an oxygen-free gas mix of 20% CO2/80% H2 at a pressure of 30 psi, where all of these growth parameters can be monitored and recorded.
# The canisters are heated using Electro-Flex Heat brand Pail Heaters controlled by a custom designed controller consisting of a 16A2120 temperature/process control (Love Controls), an RTD (resistance temperature detector) probe to measure internal tank temperature, and several safety features to prevent overheating or burns.
# The system is pressurized with oxygen-free gas that has flowed through a custom-built oxygen scrub. Commercially available gas mixes used for culturing M. smithii contain trace levels of oxygen that would kill the organism: thus, the gas mixture must be passed through an oxygen scrub. This scrub consists of a glass tube filled with copper mesh that is heated to 350° C. with heating tape (HTS/Amptek Duo-Tape), controlled by a benchtop power controller (HTS/Amptek BT-Z). The oxygen scrub is covered with insulating tape and secured behind a heat resistant polyetherimide case. Pressure in each tank is measured and recorded with a digital manometer (LEO record, Omni Instruments).
# The system is housed inside an anaerobic chamber (COY laboratories) to allow inspection and manipulation of cultures and plates without exposing M. smithii to oxygen. Each tank can house 30 standard volume 96-well plates, which can be analyzed inside the COY anaerobic chamber with a microplate reader (BioRad) that monitors growth by measuring optical density.
# 1.5 μl of the stock solutions were added to wells in 96-well plates and transferred to the COY anaerobic chamber where they were kept for at least 24 hours to become anaerobic. 150 microliters of actively growing Methanobrevibacter smithii cultures were then added to each well (excluding medium+drug blanks) to bring the drug concentrations to 1 mM, 100 μM and 10 μM, respectively. The plates were incubated in the newly developed pressurized heated anaerobic tank system in a 4:1 mixture of oxygen-scrubbed H2 and CO2 at a pressure of 30 psi. Cultures grown in 1% ethanol, methanol and DMSO were used as controls. Growth was measured by determining optical density at 600 nm using the BioRad microplate reader (model 680).
# Each condition was tested in triplicate with the average measurement plotted.
# [2] = tested on: Bacteroides thetaiotaomicron; assay: Effect of statins on growth of B. thetaiotaomicron (FIG. 14); format: cell-based; conditions: statin concentration of 1 mM (FIG. 14)
Structure (SMILES),inhibition of growth of M. smithii strains ([1]; 1 millimolar),inhibition of growth of M. smithii strains ([1]; 100 micromolar),effect on the growth of Bacteroides thetaiotaomicron [2]
CC(C)c1c(C(=O)Nc2ccccc2)c(-c2ccccc2)c(-c2ccc(F)cc2)n1CC[C@@H](O)C[C@@H](O)CC(=O)O [atorvastatin],inhibit all strains tested,inhibit all strains,None of these three statins had any affect on the growth
CC(C)c1nc(N(C)S(C)(=O)=O)nc(-c2ccc(F)cc2)c1/C=C/[C@@H](O)C[C@@H](O)CC(=O)O [rosuvastatin],inhibit all strains tested,inhibit all strains,None of these three statins had any affect on the growth
